Values quoted from earlier work in patent US20160184332A1, “MEDICAMENT COMPRISING A PHARMACEUTICAL COMBINATION OF DRUGS” (priority 2013, published 2016).

Legend:
[1] = tested on: uridine-5-5′-diphosphoglucuronyl transferase; conditions: enzyme responsible for glucuronidation
[2] = tested on: human CYP 450 isoenzymes: 1A2, 2A6, 2B6, 2C9, 2C19, 2D6 and 3A4
CYP3A4 = CYP3A4 (Homo sapiens, UniProt P08684); conditions: minor route; primary route of metabolism is glucuronidation
[3] = tested on: cytochrome P450 (CYP) isozymes; conditions: in vitro

Sequence of CYP3A4 (P08684 whole entry): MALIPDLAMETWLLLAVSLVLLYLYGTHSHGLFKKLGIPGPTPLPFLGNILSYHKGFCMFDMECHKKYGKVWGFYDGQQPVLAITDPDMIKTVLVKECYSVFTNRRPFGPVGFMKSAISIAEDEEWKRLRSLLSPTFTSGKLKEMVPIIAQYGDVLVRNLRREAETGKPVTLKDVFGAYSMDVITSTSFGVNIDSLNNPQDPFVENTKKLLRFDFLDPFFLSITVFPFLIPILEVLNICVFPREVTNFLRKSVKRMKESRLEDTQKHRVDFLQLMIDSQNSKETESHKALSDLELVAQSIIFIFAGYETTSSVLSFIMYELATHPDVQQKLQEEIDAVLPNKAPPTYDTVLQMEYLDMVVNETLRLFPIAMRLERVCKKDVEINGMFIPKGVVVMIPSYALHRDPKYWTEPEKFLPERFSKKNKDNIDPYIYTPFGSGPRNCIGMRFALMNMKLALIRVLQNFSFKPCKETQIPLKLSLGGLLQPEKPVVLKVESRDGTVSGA

Structure (SMILES) | inhibition of uridine-5-5′-diphosphoglucuronyl transferase [1] | inhibition of in vitro drug metabolism mediated by human CYP 450 isoenzymes [2] | extent to which it is a substrate of CYP3A4 (CYP3A4) | induction or inhibition of cytochrome P450 (CYP) isozymes [3]
Nc1nc(=O)n([C@@H]2CS[C@H](CO)O2)cc1F [emtricitabine, 5-fluoro-1-(2R,5S)-[2-(hydroxymethyl)-1,3 oxathiolan-5-yl]cytosine] | does not inhibit | does not inhibit | – | –
C[C@@H]1CCO[C@H]2Cn3cc(C(=O)NCc4ccc(F)cc4F)c(=O)c(O)c3C(=O)N12 [dolutegravir, (4R,12aS)—N-(2,4-difluorobenzyl)-7-hydroxy-4-methyl-6,8-dioxo-3,4,6,8,12,12a-hexa-hydro-2H-pyrido[1′,2′:4,5]pyrazino[2,1-b][1,3]oxazine-9-carboxamide] | – | – | about 15% | demonstrates induction or inhibition
